Test results from patent US20230210984A1, “ADOPTIVE IMMUNOTHERAPY” (The Council of the Queensland Institute of Medical Research, priority 2019, published 2023).

Tests used:
SNU719 and C666.1 cells = assay: Flow cytometry of Ki67 and active Caspase 3 after individual and dual treatment; type: cell-based; details: dual treatment with HLA matched T cells vs individual treatment, 16 hours
Experimental: FIG. 11: Impact of dual combination of MEK1/2 inhibitor and HLA matched allogeneic EBV specific T cells. (A) Cell growth curve highlight the rate of cellular proliferation of SNU719 (upper panel) and C666.1 (lower panel) observed in the presence of HLA-matched EBV specific T cells (effector-to-target ratio of 25:1) and selumatinib (1 μM) individually and in combination, measured using Xcellegence. The effect of individual and dual combination on (B) cell proliferation based on Ki67 and (C) cell death based on active Caspase-3 of SNU719 expression (upper panel) and C666.1 (lower panel), performed using flow cytometry. The data are represented as the mean±SD from three independent experiments. P-values were calculated using one-way ANOVA: ns=not significant, *p<0.05, **p<0.01, ***p<0.001 and ****p<0.0001.
FIG. 15: Impact of dual combination of JQ1 inhibitor and HLA matched allogeneic EBV-specific T cells. The cell viability measured by MTS assay highlighting the impact of a HLA-matched EBV specific T cells at the effector-to-target ratio of 25:1 and JQ1 (2.5 μM) in suppressing cellular growth individually and in combination after 48 hrs of incubation with indicated (A) gastric (SNU719, YCCLE1 (upper panel)) and nasopharyngeal cancer cells (C17, C666.1 (lower panel)). (B) Cell growth curve highlight the rate of cellular proliferation of SNU719 (upper panel) and C666.1 (lower panel) observed in the presence of HLA-matched EBV specific T cells (effector-to-target ratio of 25:1) and JQ1 (2.5 μM) individually and in combination, measured using Xcellegence. The effect of individual and dual combination on (C) cell proliferation based on Ki67 and (D) cell death based on active Caspase-3 of SNU719 expression (upper panel) and C666.1 (lower panel), performed using flow cytometry. The data are represented as the mean±SD from three independent experiments. P-values were calculated using one-way ANOVA: ns=not significant, *p<0.05, **p<0.01, ***p<0.001 and ****p<0.0001.
Further, to validate the impact of the combination on the cell proliferation of the EBV-associated cancer cells, we challenged SNU719 and C666.1 cells with individual and dual combination using Xcellegence. […] We also performed phenotypic characterization, using flow cytometry, of SNU719 and C666.1 cells after 16 hours of individual and dual treatment in vitro.
Similarly, we targeted MYC-dependent cancer intrinsic pathway using JQ1 inhibitor by first determining the IC50 value of the inhibitor across nasopharyngeal and gastric cancer cell lines (with drug concertation ranging from 0.5 μM-10 μM). […]

SNU719 cells = assay: Xcellegence growth curve (Example 2); type: cell-based; details: dual combination with EBV-specific T cells vs individual treatment
Experimental: P-values were calculated using one-way ANOVA: *p<0.05, **p<0.01, ***p<0.001 and ****p<0.0001.
We treated SNU719 cells (gastric cancer cells) with MEK1/2 inhibitor (AZD6244 (or selumetanib) and trematinib) at concentration of 0.5 μM and 1.0 μM respectively, as individual treatment or in combination with EBV-specific T cells (25:1) as effector to target ratio.

[1] = test system: SNU719 derived xenograft tumour; assay: SNU719 xenograft, selumatinib and TIG-001 in vivo; set-up: species or system NRG mice
Experimental: FIG. 19: Assessment of therapeutic efficacy of dual combination of selumatinib and allogeneic EBV-specific cytotoxic T cells in vivo. (A) The impact of the dual combination of selumatinib and allogeneic T cells (TIG-001) on the outgrowth of EBV-positive SNU719 xenografts in NRG mice was assessed. Tumour-bearing mice were treated with two doses of HLA-matched T cells (2×10^7 T cells per dose per mouse indicated by black arrow) and selumatinib (12.5 mg/Kg) orally for continuous 14 days, either individually or in combination. The growth of each xenograft is represented as the mean tumour area±SD from n=9 mice/group. (B) Gross morphology of the tumours isolated from the mice of indicated treatment groups. (C) Representation of tumour weight described in (B) from the mice of indicated treatment groups. The data are represented as the mean±SD from n=3 mice per group. P-values were calculated using one-way ANOVA. (D) Representation of viable percentage of tumour infiltrates observed across individually treated allogeneic T cells (TIG-001) and in combination with selumatinib as determined by CD45, CD3 and CD8 expression using flow cytometry. P-values were calculated using Student T test. (E) Kaplan-Meier overall survival analysis of the mice bearing EBV-associated tumours as described in (A) following individual and combination treatment of selumatinib and allogeneic T cells. The animals' survival (n=6 mice/group) was monitored over the indicated period of time and statistical significance was analysed by log-rank test: ns=not significant, *p<0.05, **p<0.01, ***p<0.001 and ****p<0.0001.
In next set of experiments, we wanted to investigate the effect of the above described small molecules in combination of HLA matched allogeneic EBV-specific T cells in vivo. We used the combination of selumatinib and HLA-matched T cell product (TIG-001) to treat SNU719 derived xenograft tumour model in female NRG mice. Once the xenograft reached the size of ˜25 mm^2, we treated the mice with two infusion of TIG-001 (2×10^7 cells per infusion) individually and in combination with daily dosage selumatinib (12.5 mg/kg), administered orally for 14 days. […] Next, we phenotyped the infiltration of the human origin lymphocytes in these tumours using flow cytometry.

Cc1sc2c(c1C)C(c1ccc(Cl)cc1)=N[C@@H](CC(=O)OC(C)(C)C)c1nnc(C)n1-2 [JQ1]
cell death (Active Caspase 3 staining) (SNU719 and C666.1 cells): significant cell death | cell proliferation (Ki67+ staining) (SNU719 and C666.1 cells): significant loss of cell proliferation

Cn1cnc2c(F)c(Nc3ccc(Br)cc3Cl)c(C(=O)NOCCO)cc21 [selumetanib]
rate of cell death (Xcellegence) (SNU719 cells): faster cell death | number of viable CD45+CD3+CD8+ cells in tumours ([1]; combination with TIG-001 vs individually treated T cell group): significantly more | survival rate ([1]; dual combination with TIG-001 vs individual treatment group): better survival rate | size of the tumours ([1]; dual combination with TIG-001 vs individual treatment, when control reached 150 mm^2): significantly smaller | tumour progression ([1]; selumatinib 12.5 mg/kg orally 14 days plus two infusions of TIG-001 (2×10^7 cells) vs individual treatment): significant reduction | cell death (Active Caspase 3 staining) (SNU719 and C666.1 cells): significant cell death | cell proliferation (Ki67+ staining) (SNU719 and C666.1 cells): significant loss of cell proliferation
